Reference: the SangsterLogP compilation

Test: method code SF-AS, from PMID: 8047542

Row | logP | SMILES
1 | 2.97 | COC(=O)C(C)c1ccc(CC(C)C)cc1 (configuration not stated)
2 | 2.3 | CC(C)Cc1ccc(C(C)C(=O)OC(C)C)cc1 (configuration not stated)
3 | 3.02 | CCOC(=O)C(C)c1ccc(CC(C)C)cc1 (configuration not stated)
4 | 2.68 | CC(C)COC(=O)C(C)c1ccc(CC(C)C)cc1 (configuration not stated)
5 | 3.06 | CCC(C)OC(=O)C(C)c1ccc(CC(C)C)cc1 (configuration not stated)
6 | 2.37 | CC(C)Cc1ccc(C(C)C(=O)OC(C)(C)C)cc1 (configuration not stated)
7 | 2.88 | CCCOC(=O)C(C)c1ccc(CC(C)C)cc1 (configuration not stated)

More lines, now with the values behind:

Row | SMILES | logP
8 | CCCCCOC(=O)C(C)c1ccc(CC(C)C)cc1 (configuration not stated) | 3.3
9 | CCCCCCCOC(=O)C(C)c1ccc(CC(C)C)cc1 (configuration not stated) | 3.75
10 | CCCCCCOC(=O)C(C)c1ccc(CC(C)C)cc1 (configuration not stated) | 3.55
11 | CCCCOC(=O)C(C)c1ccc(CC(C)C)cc1 (configuration not stated) | 3.13
12 | CCCCCCCCCCCCCCCCOC(=O)C(C)c1ccc(CC(C)C)cc1 (configuration not stated) | 3.71
